From PubChem BioAssay (NCI) come the findings set out here.

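Tested at 5 concentrations; 48 h exposure; 96-well plates; endpoints linearly interpolated, else capped at highest concentration. GI50: concentration for 50% inhibition of growth. TGI: concentration producing complete growth inhibition.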

Some test systems named below: HCC-2998 colon; M14 melanoma; EKVX NSCLC; OVCAR-4 ovarian; RPMI-8226 leukemia; CCRF-CEM leukemia; NCI-H226 lung; SK-MEL-5 melanoma; RXF-631 renal; MDA-MB-435.
Experiment in all cases: NCI tumour cell line growth inhibition, 48 h

`Cc1cc2c(C(C)C)c(O)c(O)c(C=NCCO)c2c(O)c1-c1c(C)cc2c(C(C)C)c(O)c(O)c(C=NCCO)c2c1O`: the TGI with HCC-2998 colon was determined as 8.25 µM; in the test on M14 melanoma it was 3.58 µM; with EKVX NSCLC, 7.3 µM; in the test on OVCAR-4 ovarian, 16.3 µM; in the test with RPMI-8226 leukemia, 4.9 µM; in the test on CCRF-CEM leukemia it was 5.78 µM. For the same compound, the TGI in the test on NCI-H226 lung turned out to be 6.88 µM; in the test with SK-MEL-5 melanoma, 3.23 µM; in the test on RXF-631 renal it was 5.35 µM.

As for `CCOc1ccc(/C(C=O)=C(\Cl)c2ccc(OC)c(OC)c2)cc1`, the TGI in the test on M14 melanoma, in the test on EKVX NSCLC, in the test on RPMI-8226 leukemia, with CCRF-CEM leukemia, with NCI-H226 lung and in the test with SK-MEL-5 melanoma was more than 100 µM each time. Also, the TGI in the test with RXF-631 renal was more than 100 µM.

As for `CC(=O)O[C@H]1C=CC(=O)C(C)CC1C` (some centres undefined), the TGI with HCC-2998 colon, in the test with M14 melanoma, in the test on EKVX NSCLC, in the test with OVCAR-4 ovarian, with CCRF-CEM leukemia and in the test on NCI-H226 lung was more than 100 µM each time. The TGI in the test with SK-MEL-5 melanoma and with RXF-631 renal was more than 100 µM each time.

`CC(=O)OCC1=C(C(=O)O)C(c2ccc3c(c2)OCO3)c2cc3c(cc2O1)OCO3` (centres undefined): the TGI in the test with M14 melanoma, in the test with EKVX NSCLC, with OVCAR-4 ovarian, with RPMI-8226 leukemia, with CCRF-CEM leukemia and in the test with SK-MEL-5 melanoma was more than 100 µM in each case. Moreover, in the test on RXF-631 renal, the TGI was more than 100 µM.

As to `CCCC(N)C(=O)c1ccccc1` (centres undefined), the TGI in the test on HCC-2998 colon, in the test with M14 melanoma, with EKVX NSCLC, in the test on OVCAR-4 ovarian, in the test with RPMI-8226 leukemia and with CCRF-CEM leukemia was more than 100 µM throughout. The TGI in the test on NCI-H226 lung and with SK-MEL-5 melanoma was more than 100 µM throughout.

As to `O=C(Nc1ccc(Sc2ccc(N=Nc3c(O)c(S(=O)(=O)O)cc4cc(S(=O)(=O)O)ccc34)cc2)cc1)c1ccc(N=Nc2c(O)ccc3c(S(=O)(=O)O)cc(S(=O)(=O)O)cc23)cc1`, the TGI in the test on HCC-2998 colon is more than 100 µM; in the test with M14 melanoma, 66.2 µM; in the test on EKVX NSCLC, more than 100 µM; in the test on OVCAR-4 ovarian, more than 100 µM; with RPMI-8226 leukemia it was 73.4 µM; with CCRF-CEM leukemia, 77.4 µM. Further, the TGI in the test on NCI-H226 lung was more than 100 µM; in the test with SK-MEL-5 melanoma it was 43.3 µM; in the test on RXF-631 renal it was more than 100 µM.

For `COc1ccc(-c2nn(-c3cccc(NC(=O)Nc4ccccc4)c3)cc2-c2ccncc2)cc1Cl`, the GI50 in the test on M14 melanoma was 2.26 µM; in the test on RPMI-8226 leukemia, 2.14 µM; in the test on MDA-MB-435, 2.03 µM; in the test on CCRF-CEM leukemia, 2.65 µM; in the test with NCI-H226 lung, 2.15 µM. For the same compound, the TGI with M14 melanoma was 4.85 µM; with RPMI-8226 leukemia, 5.83 µM; with MDA-MB-435, 5.25 µM; in the test with CCRF-CEM leukemia, 8.31 µM; in the test with NCI-H226 lung, 5.81 µM.

Consider `COc1c2c(cc3c1OCO3)C13C=CC(OC)CC1N(CC3)C2` (centres undefined), for which the TGI in the test on HCC-2998 colon, in the test on M14 melanoma, with EKVX NSCLC, in the test with OVCAR-4 ovarian, with RPMI-8226 leukemia and in the test with MDA-MB-435 was more than 100 µM each time. The TGI with CCRF-CEM leukemia, with NCI-H226 lung and in the test on SK-MEL-5 melanoma was more than 100 µM throughout.

Regarding `Clc1ccc(CNc2nc(Cl)c3[nH]cnc3n2)cc1Cl`, the TGI with HCC-2998 colon is 53.2 µM; in the test with M14 melanoma it was 70.3 µM; in the test on EKVX NSCLC it was more than 100 µM; with OVCAR-4 ovarian it was more than 100 µM; with MDA-MB-435, more than 100 µM; in the test on CCRF-CEM leukemia, more than 100 µM. Moreover, the TGI in the test with NCI-H226 lung amounted to 78.9 µM; in the test on SK-MEL-5 melanoma, 37.4 µM.

Take `C=C1C(=O)O[C@@H]2[C@H]1CCC(C)=C1C=CC(=O)[C@]12C`: the TGI is 27.8 µM in the test on HCC-2998 colon; 31.1 µM in the test with EKVX NSCLC; 49.7 µM in the test with RPMI-8226 leukemia; 26 µM in the test with CCRF-CEM leukemia; 43.4 µM in the test on NCI-H226 lung; 27.5 µM in the test on SK-MEL-5 melanoma. This compound yielded a TGI in the test with RXF-631 renal of 23.6 µM.

On to `CCC(=O)NC(Nc1cccc(F)c1)(C(F)(F)F)C(F)(F)F`, for which the TGI with HCC-2998 colon, in the test with M14 melanoma, in the test with EKVX NSCLC, with OVCAR-4 ovarian, with RPMI-8226 leukemia and in the test with MDA-MB-435 was more than 100 µM in each case. The TGI in the test on CCRF-CEM leukemia and in the test with SK-MEL-5 melanoma was more than 100 µM each time.

With `CC(=O)C=NCC(=O)O`, the TGI in the test with M14 melanoma, in the test on EKVX NSCLC, with OVCAR-4 ovarian, with RPMI-8226 leukemia, in the test on MDA-MB-435 and with CCRF-CEM leukemia was more than 100 µM throughout. Besides, the TGI in the test with NCI-H226 lung and in the test on SK-MEL-5 melanoma was more than 100 µM throughout.

On to `NC1(C(=O)O)CCc2ccc(N(CCCl)CCCl)cc2C1` (centres undefined), for which the TGI with HCC-2998 colon, with EKVX NSCLC, in the test on OVCAR-4 ovarian, in the test with RPMI-8226 leukemia, in the test with CCRF-CEM leukemia and with NCI-H226 lung was more than 100 µM throughout. This compound also showed a TGI in the test on SK-MEL-5 melanoma of more than 100 µM.

With `c1ccc(N=c2nc(N3CCOCC3)ss2)cc1`, the TGI in the test on HCC-2998 colon is 45.1 µM; in the test with M14 melanoma, 27.9 µM; in the test with EKVX NSCLC, 36.4 µM; in the test on OVCAR-4 ovarian, 29.1 µM; in the test with NCI-H226 lung, more than 100 µM; in the test with SK-MEL-5 melanoma it was more than 100 µM. In the test on RXF-631 renal, this compound registered a TGI of 31.7 µM.

With `Fc1ccc(-c2nn3c(-c4cc(C(F)(F)F)cc(C(F)(F)F)c4)nnc3s2)cc1`, the GI50 is more than 50 µM in the test with HCC-2998 colon; more than 50 µM in the test with M14 melanoma; 1.75 µM in the test on EKVX NSCLC; 1.48 µM in the test with OVCAR-4 ovarian; more than 50 µM with RPMI-8226 leukemia; more than 50 µM with MDA-MB-435. For the same compound, the GI50 in the test on CCRF-CEM leukemia is more than 50 µM; in the test on NCI-H226 lung, 1.49 µM; with SK-MEL-5 melanoma, 4.42 µM. The TGI in the test with HCC-2998 colon, in the test with M14 melanoma, with EKVX NSCLC, in the test with OVCAR-4 ovarian, in the test on RPMI-8226 leukemia and with MDA-MB-435 was more than 50 µM in each case. The TGI with CCRF-CEM leukemia, in the test with NCI-H226 lung and in the test with SK-MEL-5 melanoma was more than 50 µM in each case.

`N#CC(Nc1cccc(C(F)(F)F)c1)c1ccccc1C(F)(F)F` (centres undefined): the TGI was 18.6 µM in the test on HCC-2998 colon; 17.6 µM in the test with M14 melanoma; 28.7 µM in the test with EKVX NSCLC; 15.2 µM in the test on OVCAR-4 ovarian; 59.7 µM in the test on CCRF-CEM leukemia; 30.4 µM in the test on NCI-H226 lung. In the test on SK-MEL-5 melanoma, this compound had a TGI of 32.1 µM.

For `O=C(Nc1c(C(=O)NC2CCCCC2)[nH]c(=O)[nH]c1=O)c1ccc(Cl)cc1`, the TGI in the test with M14 melanoma, in the test with EKVX NSCLC, in the test with OVCAR-4 ovarian, in the test on RPMI-8226 leukemia, in the test on CCRF-CEM leukemia and with NCI-H226 lung was more than 100 µM in each case. The compound also displayed a TGI with SK-MEL-5 melanoma of more than 100 µM.
